Consider 13 compounds from patent publication US7405201B2, “Antibacterial macrocycles” (Bayer Healthcare AG, priority 2001, dated 2008).

Values after ≈ are worked out from the molar mass of the structure shown. Like-named read-outs stand apart in the source and are kept apart here. Positions of bridges follow the written chain, without caps; N, C: chain ends. Non-standard residues stand in square brackets, D forms with d. Residues, ends and D or L forms follow the SMILES beside them. ξ: configuration not given here. *: point of attachment. Phe(3,5-F2) = N[C@@H](Cc1cc(F)cc(F)c1)C(=O)O; Phe(3-Cl) = N[C@@H](Cc1cccc(Cl)c1)C(=O)O; ξPhe(3,5-F2) = NC(Cc1cc(F)cc(F)c1)C(=O)O; Pro(4R-Me) = C[C@H]1CN[C@H](C(=O)O)C1; Phe(2-F) = N[C@@H](Cc1ccccc1F)C(=O)O; Heptenoyl(2E) = CCCC/C=C/C(=O)*; NMeS = CN[C@@H](CO)C(=O)O; X4 = O=C(/C=C/C1CC=CCC1)*; NMeA = CN[C@@H](C)C(=O)O; X1 = CC(C)/C=C(\F)C(=O)*; X5 = CCCC(C)/C=C/C(=O)*; X2 = CCCCC/C=C/C(=O)*; ξPip = O=C(O)C1CCCCN1; X3 = O=C(C=C1CCC1)*

The conditions of series [1]: amide bond, EDC/pentafluorophenol (Pfp ester), then HCl/dioxane, then aq. NaHCO3, dichloromethane, 25.0 °C, 3 steps.
Series [2] relates to Staphylococcus aureus 133. Kind of series: Minimum inhibitory concentration (MIC), liquid dilution test. The class given is cell-based. The conditions noted are these: Müller Hinton broth, overnight culture diluted 1:10 000, 37° C., 18-24 hours. As for the experimental part: (§1) Determination of the Minimum Inhibitory Concentration (MIC): The MIC is determined in the liquid dilution test. Overnight cultures of the test microorganisms are diluted 1:5 000 or S. aureus 133 is diluted 1:10 000 in Müller Hinton broth (manufacturer: BBL) and incubated with dilutions of the test substances (dilution stages 1:2). Exceptions are the tests with S. pyogenes Wacker and S. pneumoniae 1707/4, which are carried out in Müller Hinton broth plus 20% bovine serum. The cultures are incubated at 37° C. for 18-24 hours; enterococci and streptococci in the presence of 8-10% of CO2. The lowest substance concentration in each case at which visible bacterial growth no longer takes place is defined as the MIC. […] The compounds show very good antibacterial action against most of the test microorganisms and thus a broad Gram-positive action.

For series [3], the system named is Enterococcus faecium L 4001. The series is described as above. The conditions noted are these: L4001, Müller Hinton broth, 37° C., 18-24 hours, 8-10% of CO2. The class given is cell-based. Here is the method: as §1
Series [4] concerns Streptococcus pneumoniae 1707/4. Described as above. The conditions noted are these: Müller Hinton broth plus 20% bovine serum, 37° C., 18-24 hours, 8-10% of CO2. It counts as cell-based. Here is the method: as §1
The test system of series [5] is Streptococcus pyogenes Wacker. The description is as above. The class given is cell-based. The conditions noted are these: Müller Hinton broth plus 20% bovine serum, 37° C., 18-24 hours, 8-10% of CO2. As for the experimental part: as §1
In series [6] the test system is Enterococcus faecalis ICB 27159. Described as above. It counts as cell-based. The conditions noted are these: ICB27159, Müller Hinton broth, 37° C., 18-24 hours, 8-10% of CO2. As for the experimental part: as §1

For the compound `C[C@@H]1C[C@H]2C(=O)OC[C@H](NC(=O)OCc3ccccc3)C(=O)N3CCC[C@H]3C(=O)N3CCCC[C@H]3C(=O)N[C@@H](C)C(=O)N2C1`, the ring closure, yield of all isomers in series [1] (from C[C@@H]1C[C@@H](C(=O)OC[C@H](NC(=O)OCc2ccccc2)C(=O)O)N(C(=O)[C@H](C)NC(=O)[C@@H]2CCCCN2C(=O)[C@@H]2CCCN2C(=O)OC(C)(C)C)C1, 2.58 mM, 16.0 h) stood at 60%.

`C[C@@H]1NC(=O)[C@H](C)N(C)C(=O)[C@@H]2CCCN2C(=O)[C@@H](NC(=O)OCc2ccccc2)COC(=O)[C@@H]2CCCN2C1=O`: the ring closure, yield of all isomers in series [1] (from C[C@H](NC(=O)[C@H](C)N(C)C(=O)[C@@H]1CCCN1C(=O)OC(C)(C)C)C(=O)N1CCC[C@H]1C(=O)OC[C@H](NC(=O)OCc1ccccc1)C(=O)O, 8.9 mM, 2.0 h) came out at 58%.

For the compound `CCCC/C=C/C(=O)N[C@@H](Cc1cc(F)cc(F)c1)C(=O)N[C@H]1COC(=O)[C@@H]2CCCN2C(=O)[C@H](C)NC(=O)[C@H](C)N(C)C(=O)[C@@H]2CCCN2C1=O` [Example 1, (E)-Hept-2-enoic acid [(S)-2-(3,5-difluorophenyl)-1-((3S,7S,13S,16S,19S)-13,16,17-trimethyl-2,6,12,15,18-pentaoxo-5-oxa-1,11,14,17-tetraazatricyclo[17.3.0.0^7,11]docos-3-ylcarbamoyl)-ethyl]-amide] ({Heptenoyl(2E)}-[Phe(3,5-F2)]SP[NMeA]AP; ester 2-C), the MIC in series [2] was 0.25 µg/mL (≈ 0.342 µM); in series [3], less than 0.125 µg/mL; in series [4], less than 0.125 µg/mL; in series [5], 25 µg/mL; in series [6] it was less than 0.125 µg/mL.

With `C[C@@H]1C[C@H]2C(=O)OC[C@H](NC(=O)[C@H](Cc3cc(F)cc(F)c3)NC(=O)CCC3CCCCC3)C(=O)N3CCC[C@H]3C(=O)N3CCCC[C@H]3C(=O)N[C@@H](C)C(=O)N2C1` [Example 3, 3-Cylcohexylpropanoic acid [(S)-2-(3,5-difluorophenyl)-1-((3S,9S,13S,15R,19S,22S)-15,19-Dimethyl-2,8,12,18,21-pentaoxo-11-oxa-1,7,17,20-tetraaza-tetracyclo[20.4.0.0^3,7.0^13,17]hexacos-9-ylcarbamoyl)-ethyl]-amide], the minimal inhibitory concentration (MIC) in series [2] was 0.5 µg/mL (≈ 0.626 µM); in series [3], less than 0.125 µg/mL; in series [4] it was less than 0.125 µg/mL; in series [5], 0.5 µg/mL; in series [6] it was less than 0.125 µg/mL.

Consider `CCCC/C=C/C(=O)N[C@@H](Cc1cc(F)cc(F)c1)C(=O)N[C@H]1COC(=O)[C@@H]2C[C@@H](C)CN2C(=O)[C@H](C)NC(=O)[C@H](C)N(C)C(=O)[C@@H]2CCCN2C1=O` [Example 6] ({Heptenoyl(2E)}-[Phe(3,5-F2)]SP[NMeA]A[Pro(4R-Me)]; ester 2-C), for which the MIC was less than 0.125 µg/mL in series [2]; less than 0.125 µg/mL in series [3]; 0.125 µg/mL in series [4]; 0.25 µg/mL in series [5]; less than 0.125 µg/mL in series [6].

Consider `CCCC/C=C/C(=O)N[C@@H](Cc1cc(F)cc(F)c1)C(=O)N[C@H]1COC(=O)[C@@H]2CCCN2C(=O)[C@H](C)NC(=O)[C@H](CO)N(C)C(=O)[C@@H]2CCCN2C1=O` [Example 13] ({Heptenoyl(2E)}-[Phe(3,5-F2)]SP[NMeS]AP; ester 2-C), for which the MIC in series [2] is 0.25 µg/mL (≈ 0.335 µM); in series [3], less than 0.125 µg/mL; in series [4], less than 0.125 µg/mL; in series [5], less than 0.125 µg/mL; in series [6], less than 0.125 µg/mL.

Turning to `C[C@@H]1NC(=O)[C@H](C)N(C)C(=O)[C@@H]2CCCN2C(=O)[C@@H](NC(=O)[C@H](Cc2ccccc2F)NC(=O)/C=C/C2CC=CCC2)COC(=O)[C@@H]2CCCN2C1=O` (stereo partly drawn) [Example 28] (X4-[Phe(2-F)]SP[NMeA]AP; ester 2-C), the MIC was 8 µg/mL (≈ 10.9 µM) in series [2]; 4 µg/mL (≈ 5.43 µM) in series [3]; 1 µg/mL in series [4]; 2 µg/mL in series [5]; 8 µg/mL (≈ 10.9 µM) in series [6].

As to `CCCCC/C=C/C(=O)N[C@@H](Cc1cccc(Cl)c1)C(=O)N[C@H]1COC(=O)[C@@H]2CCCN2C(=O)[C@H](C)NC(=O)[C@H](C)N(C)C(=O)[C@@H]2CCCN2C1=O` [Example 32] (X2-[Phe(3-Cl)]SP[NMeA]AP; ester 2-C), the MIC in series [2] was 4 µg/mL (≈ 5.38 µM); in series [3], 0.5 µg/mL (≈ 0.673 µM); in series [4], 2 µg/mL; in series [5], 2 µg/mL; in series [6], 1 µg/mL (≈ 1.35 µM).

On to `CCCC/C=C/C(=O)NC(Cc1cc(F)cc(F)c1)C(=O)N[C@H]1COC(=O)[C@@H]2CCCN2C(=O)CNC(=O)C2CCCCN2C(=O)[C@@H]2CCCN2C1=O` (stereo partly drawn) [Example 61] ({Heptenoyl(2E)}-[ξPhe(3,5-F2)]SP[ξPip]GP; ester 2-C), for which the MIC in series [2] was 64 µg/mL (≈ 86.2 µM); in series [3], 32 µg/mL (≈ 43.1 µM); in series [4] it was 16 µg/mL; in series [5], 16 µg/mL; in series [6], 32 µg/mL (≈ 43.1 µM).

As for `CCCC(C)/C=C/C(=O)N[C@@H](Cc1cc(F)cc(F)c1)C(=O)N[C@H]1COC(=O)[C@@H]2CCCN2C(=O)[C@H](C)NC(=O)[C@H](C)N(C)C(=O)[C@@H]2CCCN2C1=O` (stereo partly drawn) [Example 75] (X5-[Phe(3,5-F2)]SP[NMeA]AP; ester 2-C), the MIC in series [2] is 0.5 µg/mL (≈ 0.671 µM); in series [3] it was less than 0.125 µg/mL; in series [4] it was less than 0.125 µg/mL; in series [5] it was 0.25 µg/mL; in series [6], less than 0.125 µg/mL.

As to `C=CCC/C=C/C(=O)N[C@@H](Cc1cc(F)cc(F)c1)C(=O)N[C@H]1COC(=O)[C@@H]2C[C@@H](C)CN2C(=O)[C@H](C)NC(=O)[C@@H]2CCCCN2C(=O)[C@@H]2CCCN2C1=O` [Example 79], the MIC in series [2] is 0.25 µg/mL (≈ 0.325 µM); in series [3], less than 0.125 µg/mL; in series [4], 0.5 µg/mL; in series [5], 1 µg/mL; in series [6], less than 0.125 µg/mL.

`CC(C)/C=C(\F)C(=O)N[C@@H](Cc1cc(F)cc(F)c1)C(=O)N[C@H]1COC(=O)[C@@H]2CCCN2C(=O)[C@H](C)NC(=O)[C@H](C)N(C)C(=O)[C@@H]2CCCN2C1=O` [Example 84] (X1-[Phe(3,5-F2)]SP[NMeA]AP; ester 2-C): the MIC in series [2] was found to be 4 µg/mL (≈ 5.44 µM); in series [3], 0.5 µg/mL (≈ 0.68 µM); in series [4], 0.25 µg/mL; in series [5], 0.5 µg/mL; in series [6], 0.5 µg/mL (≈ 0.68 µM).

As for `C[C@@H]1NC(=O)[C@H](C)N(C)C(=O)[C@@H]2CCCN2C(=O)[C@@H](NC(=O)[C@H](Cc2cc(F)cc(F)c2)NC(=O)C=C2CCC2)COC(=O)[C@@H]2CCCN2C1=O` [Example 85] (X3-[Phe(3,5-F2)]SP[NMeA]AP; ester 2-C), the MIC came out at 32 µg/mL (≈ 44.8 µM) in series [2]; 4 µg/mL (≈ 5.6 µM) in series [3]; 1 µg/mL in series [4]; 2 µg/mL in series [5]; 2 µg/mL (≈ 2.8 µM) in series [6].

In general, MIC refers to the lowest concentration that inhibits growth of the organism.
